The record followed here is patent US8263606B2 (Xenon Pharmaceuticals Inc., priority 2008, dated 2012).

pIC50: −log10 of the molar value.

The target of one data set is CYP3A4 (Homo sapiens, UniProt P08684). Kind of data set: Cytochrome P450 (CYP450) Inhibition Assay, CYP3A4 (Vivid fluorescence, BOMCC substrate). Particulars: human, P450 Baculosomes (recombinant CYP3A4), probe BOMCC (Vivid substrate).
In a further data set the test system is sodium channel. Kind of data set: Guanidine influx assay (14C-guanidine radiotracer flux, in vitro). The format is cell-based, human or rat. As to conditions: guanidine influx assay using a known cell line that expresses a sodium channel. The essentials:
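IC50 derives from a four-parameter logistic fit of 14C-guanidine uptake, test agent serially half-diluted around a 1 μM midpoint. Flux was driven by aconitine in low-sodium HEPES/choline saline at ambient temperature, using endogenous or recombinant human or rat sodium-channel cell lines plated ~100,000/well for 20–24 h.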

Sequence of CYP3A4 (P08684 whole entry): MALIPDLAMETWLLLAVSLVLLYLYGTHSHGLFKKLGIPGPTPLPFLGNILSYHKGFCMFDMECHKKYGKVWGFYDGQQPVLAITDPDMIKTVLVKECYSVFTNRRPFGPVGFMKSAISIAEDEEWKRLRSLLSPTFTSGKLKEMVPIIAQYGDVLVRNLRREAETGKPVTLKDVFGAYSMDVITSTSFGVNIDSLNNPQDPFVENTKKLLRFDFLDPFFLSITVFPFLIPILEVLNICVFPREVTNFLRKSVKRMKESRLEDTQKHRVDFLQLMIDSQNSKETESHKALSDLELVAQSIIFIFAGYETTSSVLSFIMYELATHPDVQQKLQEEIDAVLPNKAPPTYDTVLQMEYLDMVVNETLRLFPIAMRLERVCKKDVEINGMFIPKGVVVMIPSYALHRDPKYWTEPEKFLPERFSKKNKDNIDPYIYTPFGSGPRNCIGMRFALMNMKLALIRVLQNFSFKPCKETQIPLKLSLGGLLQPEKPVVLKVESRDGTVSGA

On to `Cc1nc2cc3c(cc2s1)C1(CO3)C(=O)Nc2ccccc21` (centres unmarked) [Example 1, 2-methylspiro[furo[2,3-f][1,3]benzothiazole-7,3′-indol]-2′(1′H)-one], for which the melting point was above 250 °C. The inhibition at 10 µM on CYP3A4 was below 50%. Further, the pIC50 in the data set on sodium channel (activity level class) is 5.00 to 6.00.
`O=C1N(C(c2ccccc2)c2ccccc2)c2cccc(F)c2C12COc1cc3c(cc12)OCCO3` (centres unmarked) [Example 2.44, 1′-(diphenylmethyl)-4′-fluoro-2,3-dihydrospiro[furo[2,3-g][1,4]benzodioxine-8,3′-indol]-2′(1′H)-one] yielded a melting point of 196 to 198 °C. Moreover, the pIC50 in the data set with sodium channel (activity level class) was 6.00 to 7.00.
Taken in the same sequence, the figures for `O=C1N(Cc2ccccn2)c2ccccc2C12COc1ccc3c(c12)OCCO3` (centres unmarked) [Example 4.127, 1-(pyridin-2-ylmethyl)-2,3-dihydrospiro[furo[3,2-f][1,4]benzodioxine-9,3′-indol]-2′(1′H)-one] were 132 to 134 °C and 5.00 to 6.00.
Turning to `O=C(O)c1ccc(CN2C(=O)C3(COc4cc5c(cc43)OCCO5)c3ccccc32)o1` (centres unmarked) [Example 11.32, 5-[(2′-oxo-2,3-dihydrospiro[furo[2,3-g][1,4]benzodioxine-8,3′-indol]-1′(2′H)-yl)methyl]furan-2-carboxylic acid], the melting point was 192 to 195 °C. The negative logarithm of the IC50 (pIC50) in the data set with sodium channel was 5.00 to 6.00.
Turning to `CN1C(=O)C2(COc3cc4c(cc32)OCCO4)c2c(-c3cn[nH]c3)cccc21` (centres unmarked) [Example 16.69, 1′-methyl-4′-(1H-pyrazol-4-yl)-2,3-dihydrospiro[furo[2,3-g][1,4]benzodioxine-8,3′-indol]-2′(1′H)-one], the melting point lay in the range of 250 to 251 °C. In addition, the inhibition at 10 µM on CYP3A4 was below 50%.
Taken in the same sequence, the figures for `CN1C(=O)C2(COc3cc4c(cc32)OCCO4)c2c(-c3cnn(C)c3)cccc21` (centres unmarked) [Example 16.70, 1′-methyl-4′-(1-methyl-1H-pyrazol-4-yl)-2,3-dihydrospiro[furo[2,3-g][1,4]benzodioxine-8,3′-indol]-2′(1′H)-one] were 220 to 222 °C and below 50%.
For `CN1C(=O)C2(COc3cc4c(cc32)OCCO4)c2c(C#N)cccc21` (centres unmarked) [Example 16.71, 1′-methyl-2′-oxo-1′,2,2′,3-tetrahydrospiro[furo[2,3-g][1,4]benzodioxine-8,3′-indole]-4′-carbonitrile] the same measures were 196 to 197 °C and below 50%.
For `CN1C(=O)C2(COc3cc4c(cc32)OCO4)c2c(C3CCOC3)cccc21` (centres unmarked) [Example 16.73, 1′-methyl-4′-(tetrahydrofuran-3-yl)spiro[furo[2,3-f][1,3]benzodioxole-7,3′-indol]-2′(1′H)-one] the same measures were 182 to 184 °C and above 50%.
Regarding `Cc1nc(-c2cccc3c2C2(COc4cc5c(cc42)OCCO5)C(=O)N3C)no1` (centres unmarked) [Example 16.74, 1′-methyl-4′-(5-methyl-1,2,4-oxadiazol-3-yl)-2,3-dihydrospiro[furo[2,3-g][1,4]benzodioxine-8,3′-indol]-2′(1′H)-one], the melting point lay within 199 to 201 °C. The inhibition at 10 µM on CYP3A4 is below 50%.
Taken in the same sequence, the figures for `Cc1noc(C)c1-c1cccc2c1C1(COc3cc4c(cc31)OCCO4)C(=O)N2C` (centres unmarked) [Example 16.75, 4′-(3,5-dimethylisoxazol-4-yl)-1′-methyl-2,3-dihydrospiro[furo[2,3-g][1,4]benzodioxine-8,3′-indol]-2′(1′H)-one] were 228 to 230 °C and above 50%.
In turn, `CN1C(=O)C2(COc3cc4c(cc32)OCCO4)c2c(C(=O)NC3CCC3)cccc21` (centres unmarked) [Example 16.77, N-cyclobutyl-1′-methyl-2′-oxo-1′,2,2′,3-tetrahydrospiro[furo[2,3-g][1,4]benzodioxine-8,3′-indole]-4′-carboxamide] gave a melting point of 128 to 129 °C. Besides, at CYP3A4, the inhibition at 10 µM was below 50%.
Regarding `COc1cccc(Oc2cccc3c2C2(COc4cc5c(cc42)OCCO5)C(=O)N3C)c1` (centres unmarked) [Example 16.79, 4′-(3-methoxyphenoxy)-1′-methyl-2,3-dihydrospiro[furo[2,3-g][1,4]benzodioxine-8,3′-indol]-2′(1′H)-one], the melting point fell in the range of 166 to 168 °C. On CYP3A4, the inhibition at 10 µM is above 50%.
In turn, `COc1ccc(Oc2cccc3c2C2(COc4cc5c(cc42)OCCO5)C(=O)N3C)cc1` (centres unmarked) [Example 16.84, 4′-(4-methoxyphenoxy)-1′-methyl-2,3-dihydrospiro[furo[2,3-g][1,4]benzodioxine-8,3′-indol]-2′(1′H)-one] gave a melting point of 55 to 58 °C. The inhibition at 10 µM on CYP3A4 is above 50%.
Taken in the same sequence, the figures for `CN1C(=O)C2(COc3cc4c(cc32)OCCO4)c2c(OCc3ccccn3)cccc21` (centres unmarked) [Example 16.85, 1′-methyl-4-(pyridine-2-ylmethoxy)-2,3-dihydrospiro[furo[2,3-g][1,4]benzodioxine-8,3′-indol]-2′(1′H)-one] were 181 to 183 °C and above 50%.
`CN1C(=O)C2(COc3cc4c(cc32)OCCO4)c2c(Oc3ccc(F)cc3)cccc21` (centres unmarked) [Example 16.87, 4′-(4-fluorophenoxy)-1′-methyl-2,3-dihydrospiro[furo[2,3-g][1,4]benzodioxine-8,3′-indol]-2′(1′H)-one] registered a melting point of 151 to 153 °C. The inhibition at 10 µM on CYP3A4 is above 50%.
Taken in the same sequence, the figures for `Cc1nc(-c2cccc3c2C2(COc4cc5c(cc42)OCCO5)C(=O)N3C)cs1` (centres unmarked) [Example 25, 1′-methyl-4′-(2-methyl-1,3-thiazol-4-yl)-2,3-dihydrospiro[furo[2,3-g][1,4]benzodioxine-8,3′-indol]-2′(1′H)-one] were 219 to 220 °C and above 50%.
Turning to `CN1C(=O)C2(COc3cc4c(cc32)OCCO4)c2c(-c3csc(N)n3)cccc21` (centres unmarked) [Example 26, 4′-(2-amino-1,3-thiazol-4-yl)-1′-methyl-2,3-dihydrospiro[furo[2,3-g][1,4]benzodioxine-8,3′-indol]-2′(1′H)-one], the melting point was 233 to 234 °C (dec.). Further, the inhibition at 10 µM at CYP3A4 is above 50%.
For `CN1C(=O)C2(COc3cc4c(cc32)OCCO4)c2c(-c3cc(O)[nH]n3)cccc21` (centres unmarked) [Example 27, 4′-(5-hydroxy-1H-pyrazol-3-yl)-1′-methyl-2,3-dihydrospiro[furo[2,3-g][1,4]benzodioxine-8,3′-indol]-2′(1′H)-one] the same measures were above 250 °C and below 50%.
Consider `Nc1cccc(CN2C(=O)C3(COc4cc5c(cc43)OCCO5)c3ccccc32)n1` (centres unmarked) [Example 34, 1′-[(6-aminopyridin-2-yl)methyl]-2,3-dihydrospiro[furo[2,3-g][1,4]benzodioxine-8,3′-indol]-2′(1′H)-one], for which the melting point fell in the range of 240 to 241 °C. Also, on CYP3A4, the inhibition at 10 µM is above 50%.
`O=C1N(C[C@H](O)CO)c2ccccc2C12COc1cc3c(cc12)OCCO3` (stereo partly drawn) [Example 40, 1′-[(2S)-2,3-dihydroxypropyl]-2,3-dihydrospiro[furo[2,3-g][1,4]benzodioxine-8,3′-indol]-2′(1′H)-one] returned a melting point of 179 to 181 °C. The pIC50 in the data set on sodium channel was 6.00 to 7.00.

Usually melting point stands for the temperature, or range, at which the solid turns liquid. The inhibition is the share of the control response that was lost under treatment. Broadly, the pIC50 is −log10 of the IC50, conventionally taken in molar units.
